Experimental data as given in ChEMBL document CHEMBL3885861, “Open TG-GATES”.

Species on record: Rattus norvegicus
Test: Open TG-GATES - Regimen: Daily Repeat
Format: toxicity, organism-based, Sprague-Dawley
Set-up: regimen Daily Repeat, gender Male, age 6 weeks
Conditions: in vivo, po, 0 mg/kg, route gavage, dose level Control; for APTT / Bas / Eos / Fbg / Hb / Ht / Lym / MCH / MCHC / MCV / Mono / Neu / PT / Plat / RBC / Ret / WBC: tissue Blood; for KIDNEY_L / KIDNEY_R / KIDNEY_TOTAL: tissue Kidney; for LIVER: tissue Liver; for A/G / ALP / ALT / AST / BUN / CRE / Ca / Cl / DBIL / GLC / IP / K / LDH / Na / PL / RALB / TBIL / TC / TG / TP / gamma-GTP: tissue Plasma

CC(=O)[C@@]1(O)CC[C@H]2[C@@H]3C=C(Cl)C4=CC(=O)CC[C@]4(C)[C@H]3CC[C@@]21C [CHLORMADINONE]
TERMINAL_BW (72 h, time 3 day): 240.6 g
APTT (72 h, time 3 day): 23.6 s
Bas (72 h, time 3 day): 0%
Eos (72 h, time 3 day): 1%
Fbg (72 h, time 3 day): 295 mg/dL
Hb (72 h, time 3 day): 13.3 g/dL
Ht (72 h, time 3 day): 40.9%
Lym (72 h, time 3 day): 77.6%
MCH (72 h, time 3 day): 20.3 pg
MCHC (72 h, time 3 day): 32.6%
MCV (72 h, time 3 day): 62.4 fL
Mono (72 h, time 3 day): 2.6%
Neu (72 h, time 3 day): 18.4%
PT (72 h, time 3 day): 15.6 s
Plat (72 h, time 3 day): 116.7 x10_4/uL
RBC (72 h, time 3 day): 656 x10_4/ul
Ret (72 h, time 3 day): 6.4%
WBC (72 h, time 3 day): 122.2 x10_2/uL
KIDNEY_L (72 h, time 3 day): 1 g
KIDNEY_R (72 h, time 3 day): 1 g
KIDNEY_TOTAL (72 h, time 3 day): 2 g
LIVER (72 h, time 3 day): 10.8 g
A/G (72 h, time 3 day): 1.2
ALP (72 h, time 3 day): 1828 IU/L
ALT (72 h, time 3 day): 43.8 IU/L
AST (72 h, time 3 day): 82 IU/L
BUN (72 h, time 3 day): 18.8 mg/dL
CRE (72 h, time 3 day): 0.2 mg/dL
Ca (72 h, time 3 day): 10.8 mg/dL
Cl (72 h, time 3 day): 105.8 meq/L
DBIL (72 h, time 3 day): 0 mg/dL
GLC (72 h, time 3 day): 190.6 mg/dL
IP (72 h, time 3 day): 7 mg/dL
K (72 h, time 3 day): 4.3 meq/L
LDH (72 h, time 3 day): 300.6 IU/L
Na (72 h, time 3 day): 141.6 meq/L
PL (72 h, time 3 day): 151.2 mg/dL
RALB (72 h, time 3 day): 3 g/dL
TBIL (72 h, time 3 day): 0.008 mg/dL
TC (72 h, time 3 day): 72.2 mg/dL
TG (72 h, time 3 day): 114.8 mg/dL
TP (72 h, time 3 day): 5.4 g/dL
gamma-GTP (72 h, time 3 day): 1.4 IU/L
TERMINAL_BW ([…], time 7 day): 267.1 g
TERMINAL_BW ([…], time 14 day): 325.5 g
TERMINAL_BW ([…], time 28 day): 410.9 g
APTT ([…], time 7 day): 24.1 s
Bas ([…], time 7 day): 0%
Eos ([…], time 7 day): 0.8%
Fbg ([…], time 7 day): 337 mg/dL
Hb ([…], time 7 day): 13.8 g/dL
Ht ([…], time 7 day): 41.5%
Lym ([…], time 7 day): 80.8%
MCH ([…], time 7 day): 20.3 pg
MCHC ([…], time 7 day): 33.1%
MCV ([…], time 7 day): 61.1 fL
Mono ([…], time 7 day): 2.2%
Neu ([…], time 7 day): 15.2%
PT ([…], time 7 day): 15.6 s
Plat ([…], time 7 day): 112.3 x10_4/uL
RBC ([…], time 7 day): 680 x10_4/ul
Ret ([…], time 7 day): 5.6%
WBC ([…], time 7 day): 129.9 x10_2/uL
APTT ([…], time 14 day): 23.6 s
Bas ([…], time 14 day): 0%
Eos ([…], time 14 day): 0.8%
Fbg ([…], time 14 day): 320.6 mg/dL
Hb ([…], time 14 day): 14 g/dL
Ht ([…], time 14 day): 41.9%
Lym ([…], time 14 day): 80.8%
MCH ([…], time 14 day): 19.9 pg
MCHC ([…], time 14 day): 33.5%
MCV ([…], time 14 day): 59.5 fL
Mono ([…], time 14 day): 2.2%
Neu ([…], time 14 day): 15.2%
PT ([…], time 14 day): 15.4 s
Plat ([…], time 14 day): 100.4 x10_4/uL
RBC ([…], time 14 day): 704 x10_4/ul
Ret ([…], time 14 day): 5.2%
WBC ([…], time 14 day): 126.8 x10_2/uL
APTT ([…], time 28 day): 24.8 s
Bas ([…], time 28 day): 0%
Eos ([…], time 28 day): 0.8%
Fbg ([…], time 28 day): 325 mg/dL
Hb ([…], time 28 day): 15.2 g/dL
Ht ([…], time 28 day): 44%
Lym ([…], time 28 day): 82.2%
MCH ([…], time 28 day): 19.5 pg
MCHC ([…], time 28 day): 34.4%
MCV ([…], time 28 day): 56.5 fL
Mono ([…], time 28 day): 2%
Neu ([…], time 28 day): 14.2%
PT ([…], time 28 day): 15.5 s
Plat ([…], time 28 day): 100.5 x10_4/uL
RBC ([…], time 28 day): 779 x10_4/ul
Ret ([…], time 28 day): 3%
WBC ([…], time 28 day): 118.3 x10_2/uL
KIDNEY_L ([…], time 7 day): 1.1 g
KIDNEY_R ([…], time 7 day): 1.1 g
KIDNEY_TOTAL ([…], time 7 day): 2.2 g
KIDNEY_L ([…], time 14 day): 1.2 g
KIDNEY_R ([…], time 14 day): 1.2 g
KIDNEY_TOTAL ([…], time 14 day): 2.5 g
KIDNEY_L ([…], time 28 day): 1.4 g
KIDNEY_R ([…], time 28 day): 1.4 g
KIDNEY_TOTAL ([…], time 28 day): 2.9 g
LIVER ([…], time 7 day): 12.3 g
LIVER ([…], time 14 day): 14.3 g
LIVER ([…], time 28 day): 17.2 g
A/G ([…], time 7 day): 1.2
ALP ([…], time 7 day): 1354.8 IU/L
ALT ([…], time 7 day): 39.4 IU/L
AST ([…], time 7 day): 67.8 IU/L
BUN ([…], time 7 day): 18.8 mg/dL
CRE ([…], time 7 day): 0.2 mg/dL
Ca ([…], time 7 day): 10.8 mg/dL
Cl ([…], time 7 day): 105.8 meq/L
DBIL ([…], time 7 day): 0 mg/dL
GLC ([…], time 7 day): 200.8 mg/dL
IP ([…], time 7 day): 7 mg/dL
K ([…], time 7 day): 4.2 meq/L
LDH ([…], time 7 day): 158.4 IU/L
Na ([…], time 7 day): 140.6 meq/L
PL ([…], time 7 day): 147.2 mg/dL
RALB ([…], time 7 day): 3.1 g/dL
TBIL ([…], time 7 day): 0.01 mg/dL
TC ([…], time 7 day): 76 mg/dL
TG ([…], time 7 day): 114.8 mg/dL
TP ([…], time 7 day): 5.7 g/dL
gamma-GTP ([…], time 7 day): 2.2 IU/L
A/G ([…], time 14 day): 1.1
ALP ([…], time 14 day): 1391 IU/L
ALT ([…], time 14 day): 37.4 IU/L
AST ([…], time 14 day): 64.6 IU/L
BUN ([…], time 14 day): 17.6 mg/dL
CRE ([…], time 14 day): 0.2 mg/dL
Ca ([…], time 14 day): 10.6 mg/dL
Cl ([…], time 14 day): 107 meq/L
DBIL ([…], time 14 day): 0 mg/dL
GLC ([…], time 14 day): 188 mg/dL
IP ([…], time 14 day): 6.6 mg/dL
K ([…], time 14 day): 4 meq/L
LDH ([…], time 14 day): 156.6 IU/L
Na ([…], time 14 day): 142.2 meq/L
PL ([…], time 14 day): 137.4 mg/dL
RALB ([…], time 14 day): 3 g/dL
TBIL ([…], time 14 day): 0.016 mg/dL
TC ([…], time 14 day): 69.6 mg/dL
TG ([…], time 14 day): 112.2 mg/dL
TP ([…], time 14 day): 5.7 g/dL
gamma-GTP ([…], time 14 day): 2.2 IU/L
A/G ([…], time 28 day): 1
ALP ([…], time 28 day): 988 IU/L
ALT ([…], time 28 day): 44.4 IU/L
AST ([…], time 28 day): 73.4 IU/L
BUN ([…], time 28 day): 21.6 mg/dL
CRE ([…], time 28 day): 0.2 mg/dL
Ca ([…], time 28 day): 10.6 mg/dL
Cl ([…], time 28 day): 103.8 meq/L
DBIL ([…], time 28 day): 0 mg/dL
GLC ([…], time 28 day): 201.4 mg/dL
IP ([…], time 28 day): 6.6 mg/dL
K ([…], time 28 day): 4.4 meq/L
LDH ([…], time 28 day): 217.4 IU/L
Na ([…], time 28 day): 141.2 meq/L
PL ([…], time 28 day): 131 mg/dL
RALB ([…], time 28 day): 3.1 g/dL
TBIL ([…], time 28 day): 0.01 mg/dL
TC ([…], time 28 day): 63.2 mg/dL
TG ([…], time 28 day): 112.4 mg/dL
TP ([…], time 28 day): 6.3 g/dL
gamma-GTP ([…], time 28 day): 2.2 IU/L
